Data as given in patent US20230152325A1, “Active Alpha-5-Beta-1 Integrin As A Biomarker For Enhancing Tumor Treatment Efficacy” (Institute For Cancer Research d/b/a The Research Institute …, priority 2016, published 2023).

What was measured:
[1] = tested on: naïve pancreatic fibroblasts cultured within D-ECM; assay: ECM prompted myofibroblastic maintenance (α-SMA / F-actin immunofluorescence), PDAC model; assay type: cell-based, human; details: for D-ECM induced myofibroblastic phenotype (α-SMA expression / stress fiber localization), in words: naïve cells within D-ECM treated with the agent; for α-SMA expression, Median / α-SMA stress fiber localization, Median: normalized to untreated D-ECM = 1
Protocol: (§1) ECM prompted myofibroblastic maintenance. Human naïve or assorted murine fibroblasts were incubated for 45 minutes prior to overnight culturing within assorted ECMs, prepared as above, in the presence or absence of 50 μg/ml SNAKA51, 60 μg/m ALULA, 250 μg/m mAb16, or BMAS diluted as instructed by the manufacturer (Millipore, Temecula, Calif.), IgG control, DMSO or small molecule inhibitors FAK (PF573,228) and SRC family kinases (PP2). ECM-induced phenotypes were assessed via RT-qPCR, Western Blot or immunofluorescence.
(§2) Naïve/innate PDAC and RCC patient harvested fibroblasts were cultured overnight within normal (N-ECM) vs. desmoplastic (D-ECM or DECMs that were produced in the presence or absence of TGFβ1-receptor inhibition (D+TGFβi) or vehicle control (D+DMSO). Alternatively, naïve cells cultured within D-ECMs were treated with either TGFβ1-receptor inhibitor (TGFβ-i), vehicle (DMSO), functional blocking antibodies anti-αvβ5 integrin (alula, αvβ5-i), anti-α5β1 integrin (mAb16, α5β1-i), combinations of both functional blocking antibodies (β5-i+α5-i), functional stabilizing anti α5β1 integrin (SNAKA51; α5β1-act) or non-immunized isotypic antibodies (IgG). All samples were subjected to indirect immunofluorescent labeling of desmoplastic marker α-SMA and counterstained with fluorescently labeled phalloidin to detect actin stress fibers (F-actin) and determine the co-localization ratio. Monochromatic “heat map” images (see, FIG. 2A) represent α-SMA intensity values. A 255 tones intensity scale bar is shown to the right. A summary of all measured values is graphed in FIG. 2B. Additional monochromatic images indicative of double labeled staining for α-SMA and F-actin are in FIG. 2C while levels of total α-SMA localized at corresponding stress fibers are plotted in FIG. 2D. Untreated D-ECM conditions were included in all experiments summarized in this figure and serve as normalization (1 arbitrary unit; a.u.) controls. Matching values including statistical significances are listed in accompanying Table 1. All scale bars represent 50 μm. TGFβ activity was needed to maintain functional D-ECM production but was dispensable when testing D-ECM induced responses, while the later were obstructed by αvβ5 integrin inhibition or active α5β1 integrin stabilization.

[2] = biological target: alpha-5-beta-1 (α5β1) integrin, human (human) (UniProt P08648); assay: cell-based or functional assay
Chain of UniProt P08648 (P08648 42-1049, chain 1 of 2): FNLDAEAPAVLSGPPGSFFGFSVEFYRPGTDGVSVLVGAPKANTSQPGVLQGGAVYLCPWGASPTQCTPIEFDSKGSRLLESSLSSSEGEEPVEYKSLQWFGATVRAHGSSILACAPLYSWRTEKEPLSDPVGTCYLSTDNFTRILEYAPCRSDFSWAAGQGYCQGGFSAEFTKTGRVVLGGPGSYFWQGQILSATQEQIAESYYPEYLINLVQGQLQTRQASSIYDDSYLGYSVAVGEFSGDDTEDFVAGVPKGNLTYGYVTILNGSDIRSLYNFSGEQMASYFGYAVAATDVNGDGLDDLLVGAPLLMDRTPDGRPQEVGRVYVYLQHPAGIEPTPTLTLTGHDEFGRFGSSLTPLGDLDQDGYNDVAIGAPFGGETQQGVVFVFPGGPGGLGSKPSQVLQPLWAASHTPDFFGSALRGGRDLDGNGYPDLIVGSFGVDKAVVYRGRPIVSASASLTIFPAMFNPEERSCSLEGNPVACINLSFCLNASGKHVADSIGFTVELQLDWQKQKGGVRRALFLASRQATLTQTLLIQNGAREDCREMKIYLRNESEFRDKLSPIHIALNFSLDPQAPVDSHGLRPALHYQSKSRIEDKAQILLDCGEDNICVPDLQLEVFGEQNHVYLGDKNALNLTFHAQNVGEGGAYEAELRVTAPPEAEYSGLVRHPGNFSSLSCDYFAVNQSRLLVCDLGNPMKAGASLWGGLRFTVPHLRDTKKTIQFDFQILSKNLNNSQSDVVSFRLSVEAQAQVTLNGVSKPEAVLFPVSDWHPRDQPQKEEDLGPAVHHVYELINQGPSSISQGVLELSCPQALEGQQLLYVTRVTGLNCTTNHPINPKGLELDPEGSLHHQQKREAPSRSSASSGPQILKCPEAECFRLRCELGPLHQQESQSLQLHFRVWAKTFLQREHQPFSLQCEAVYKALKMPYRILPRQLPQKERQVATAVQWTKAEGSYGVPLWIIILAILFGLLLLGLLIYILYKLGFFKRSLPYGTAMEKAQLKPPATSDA
Chain of UniProt P08648 (P05556 21-798, chain 2 of 2, further chain): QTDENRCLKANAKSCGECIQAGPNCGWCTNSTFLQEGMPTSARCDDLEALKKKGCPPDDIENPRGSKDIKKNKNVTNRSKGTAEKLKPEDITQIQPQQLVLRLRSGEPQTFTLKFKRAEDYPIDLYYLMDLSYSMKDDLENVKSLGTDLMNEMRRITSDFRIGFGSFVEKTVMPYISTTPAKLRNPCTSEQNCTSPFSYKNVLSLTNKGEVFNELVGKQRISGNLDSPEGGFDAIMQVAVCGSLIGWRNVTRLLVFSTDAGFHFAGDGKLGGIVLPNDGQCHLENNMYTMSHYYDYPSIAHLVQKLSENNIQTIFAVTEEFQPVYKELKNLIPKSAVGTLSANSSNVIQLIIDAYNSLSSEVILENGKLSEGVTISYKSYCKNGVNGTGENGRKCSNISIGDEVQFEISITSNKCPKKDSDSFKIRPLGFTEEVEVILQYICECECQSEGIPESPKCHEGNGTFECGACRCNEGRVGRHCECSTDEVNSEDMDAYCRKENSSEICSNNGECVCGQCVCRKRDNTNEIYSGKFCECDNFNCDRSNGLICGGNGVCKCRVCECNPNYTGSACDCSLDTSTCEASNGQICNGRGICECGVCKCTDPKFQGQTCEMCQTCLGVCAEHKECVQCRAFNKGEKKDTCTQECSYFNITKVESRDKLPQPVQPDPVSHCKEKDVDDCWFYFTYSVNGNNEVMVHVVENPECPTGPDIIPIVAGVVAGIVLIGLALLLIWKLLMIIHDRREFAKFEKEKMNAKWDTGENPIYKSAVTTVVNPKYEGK

[3] = tested on: naïve renal fibroblasts cultured within D-ECM; assay: ECM prompted myofibroblastic maintenance (α-SMA / F-actin immunofluorescence), RCC model; assay type: cell-based, human; details: for D-ECM induced myofibroblastic phenotype (α-SMA expression / stress fiber localization), in words: naïve cells within D-ECM treated with the agent; for α-SMA expression, Median / α-SMA stress fiber localization, Median: normalized to untreated D-ECM = 1
Protocol: as §1, §2

[4] = tested on: PDAC desmoplastic fibroblasts (D-ECM production); assay: ECM fiber orientation analysis of D-ECM produced by PDAC-associated fibroblasts; assay type: cell-based, human
Protocol: Un-extracted 3D cultures were either processed for phenotypic characterization, ECM alignment measurements, or decellularized to assess maintenance of myofibroblastic phenotype. ECM fiber orientation analysis. Fibronectin channel monochromatic images were analyzed via Imager OrientationJ plugin. Numerical outputs were normalized by setting mode angles to 0° and correcting angle spreads to fluctuate between −90° and 90°. Angle spreads for each experimental condition, corresponding to a minimum of three experimental repetitions and five image acquisitions per condition were plotted and their standard deviations calculated. The percentage of fibers oriented between −15° and 15° was determined for each normalized image-obtained data. FIGS. 1A through 1E show desmoplastic (D)-ECM remodeling by TGFβ-blockage bestows normal (N)-ECM-like phenotypes. Fibroblasts were isolated from pancreatic ductal adenocarcinoma (PDAC) and renal cell carcinoma (RCC) surgical samples and their ECM producing phenotypes were assessed prior to ECM decellularization via fibroblastic extraction. […] Complementary low/heterogeneous vs. high/organized α-SMA levels, with heterogeneous/round vs. elongated/spindled cell nuclei, and disorganized/woven vs. parallel/aligned ECM fibers are evident in the representative images. […] Scale bars represent 50 μm.

[5] = tested on: RCC desmoplastic fibroblasts (D-ECM production); assay: ECM fiber orientation analysis of D-ECM produced by RCC-associated fibroblasts; assay type: cell-based, human
Description: (§3) Preparation of fibroblasts-derived 3D ECMs. Extracellular matrices (ECMs) were obtained in the presence or absence of TGFβ1R small molecule inhibitor SB431542, DMSO, conformation-dependent anti-active α5 integrin functional antibody (SNAKA51), functional-blocking anti αvβ5 integrin (ALULA), or species matched non-immunized isotypic antibodies. Un-extracted 3D cultures were either processed for phenotypic characterization, ECM alignment measurements, or decellularized to assess maintenance of myofibroblastic phenotype.
ECM fiber orientation analysis. Fibronectin channel monochromatic images were analyzed via Imager OrientationJ plugin. […] Angle spreads for each experimental condition, corresponding to a minimum of three experimental repetitions and five image acquisitions per condition were plotted and their standard deviations calculated. The percentage of fibers oriented between −15° and 15° was determined for each normalized image-obtained data.
FIGS. 1A through 1E show desmoplastic (D)-ECM remodeling by TGFβ-blockage bestows normal (N)-ECM-like phenotypes. Fibroblasts were isolated from pancreatic ductal adenocarcinoma (PDAC) and renal cell carcinoma (RCC) surgical samples and their ECM producing phenotypes were assessed prior to ECM decellularization via fibroblastic extraction. […]

[6] = tested on: TGFβ levels stored within ECMs; assay: TGFβ protein levels in 3D unextracted culture lysates by ELISA; assay type: cell-based, human; details: inhibitor used during D-ECM production; <0.0001
Description: (§4) FIGS. 7A through 7F show characterization of human fibroblastic cells isolated from PDAC and RCC surgical samples. […] Isolated cells were probed for desmoplastic markers α-SMA and palladin while Panc1 (a pancreatic cancer cell line) cells were used as epithelial to mesenchyme […] (EMT) controls known to express both epithelial and mesenchymal markers. Assorted markers are shown in white while counterstained Hoechst identified nuclei are shown in yellow. […] TGFβ inhibition causes disorganization of desmoplastic and ablation of normal ECMs. […] Data were normalized to total protein concentration and to D-ECM readouts; results are expressed as arbitrary units (A.U.). […] All scale bars represent 50 μm.

[7] = tested on: normal fibroblasts (N-ECM assembly); assay: N-ECM assembly by normal fibroblasts under TGFβ1-receptor blockage; assay type: cell-based, human; details: blockage of TGFβ signaling during ECM production
Description: as §3, §4

[8] = biological target: alpha-v-beta-5 (αvβ5) integrin, human (human) (UniProt P06756); assay: cell-based or functional assay
[9] = biological target: αvβ5 integrin, murine (murine) (UniProt P43406); assay: cell-based or functional assay
Chain of UniProt P43406 (P43406 31-1044, chain 1 of 2): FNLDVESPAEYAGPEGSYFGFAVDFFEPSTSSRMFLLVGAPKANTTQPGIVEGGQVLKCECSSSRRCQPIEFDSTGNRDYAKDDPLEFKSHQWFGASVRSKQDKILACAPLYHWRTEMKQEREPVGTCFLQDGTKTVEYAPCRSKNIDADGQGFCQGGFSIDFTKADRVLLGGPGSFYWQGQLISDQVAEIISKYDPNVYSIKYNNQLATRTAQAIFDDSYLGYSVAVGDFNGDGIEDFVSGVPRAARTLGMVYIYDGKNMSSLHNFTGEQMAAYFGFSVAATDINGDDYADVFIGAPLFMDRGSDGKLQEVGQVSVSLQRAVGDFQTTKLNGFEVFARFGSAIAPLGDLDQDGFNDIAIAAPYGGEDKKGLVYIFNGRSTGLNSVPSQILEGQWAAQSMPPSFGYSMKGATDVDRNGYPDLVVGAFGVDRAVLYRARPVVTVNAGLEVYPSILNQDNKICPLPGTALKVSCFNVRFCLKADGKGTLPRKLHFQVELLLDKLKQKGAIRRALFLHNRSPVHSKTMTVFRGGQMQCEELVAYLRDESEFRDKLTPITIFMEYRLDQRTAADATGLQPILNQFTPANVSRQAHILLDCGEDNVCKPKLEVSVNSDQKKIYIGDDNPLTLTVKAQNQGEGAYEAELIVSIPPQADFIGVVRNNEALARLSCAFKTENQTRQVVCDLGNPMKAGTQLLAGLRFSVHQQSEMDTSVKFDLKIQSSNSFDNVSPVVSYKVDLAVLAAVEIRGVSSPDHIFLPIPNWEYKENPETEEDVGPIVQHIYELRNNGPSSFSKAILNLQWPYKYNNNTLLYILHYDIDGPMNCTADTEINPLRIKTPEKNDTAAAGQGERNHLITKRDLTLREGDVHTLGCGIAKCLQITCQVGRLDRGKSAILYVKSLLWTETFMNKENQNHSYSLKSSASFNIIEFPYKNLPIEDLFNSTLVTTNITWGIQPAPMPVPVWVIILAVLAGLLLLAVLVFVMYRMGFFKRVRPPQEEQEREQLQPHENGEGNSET
Chain of UniProt P43406 (O70309 24-798, chain 2 of 2, further chain): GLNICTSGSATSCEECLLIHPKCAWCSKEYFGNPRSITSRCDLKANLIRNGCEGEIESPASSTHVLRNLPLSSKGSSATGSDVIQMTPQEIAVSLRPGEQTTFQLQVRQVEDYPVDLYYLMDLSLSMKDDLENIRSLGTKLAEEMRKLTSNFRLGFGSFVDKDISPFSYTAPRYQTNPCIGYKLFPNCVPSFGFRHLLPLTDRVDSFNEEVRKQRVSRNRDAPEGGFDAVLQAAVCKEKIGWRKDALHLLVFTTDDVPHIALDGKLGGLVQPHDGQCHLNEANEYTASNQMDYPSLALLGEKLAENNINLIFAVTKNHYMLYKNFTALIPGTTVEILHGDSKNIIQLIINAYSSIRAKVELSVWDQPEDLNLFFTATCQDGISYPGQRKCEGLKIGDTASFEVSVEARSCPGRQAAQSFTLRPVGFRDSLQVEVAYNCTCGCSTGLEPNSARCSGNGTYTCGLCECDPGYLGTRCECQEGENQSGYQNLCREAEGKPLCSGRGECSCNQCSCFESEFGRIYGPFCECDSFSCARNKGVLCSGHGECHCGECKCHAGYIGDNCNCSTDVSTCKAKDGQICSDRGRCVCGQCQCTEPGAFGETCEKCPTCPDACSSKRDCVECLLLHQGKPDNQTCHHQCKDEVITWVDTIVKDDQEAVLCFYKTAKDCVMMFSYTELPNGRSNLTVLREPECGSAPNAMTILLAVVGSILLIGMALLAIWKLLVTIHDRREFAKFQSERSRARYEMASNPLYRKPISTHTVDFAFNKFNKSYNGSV

[10] = SB-431542 during D-ECM production
[11] = PDAC, naïve cells within D-ECM treated overnight
[12] = PDAC, naïve fibroblasts in D-ECM that was produced in presence of TGFβ1-receptor inhibitor
[13] = RCC, naïve cells within D-ECM treated overnight
[14] = RCC, naïve fibroblasts in D-ECM that was produced in presence of TGFβ1-receptor inhibitor

## C[C@@H]1C[C@@H]([C@H](O)CC2CC(=O)NC(=O)C2)C(=O)[C@@H](C)C1 [cycloheximide]
[1]; overnight treatment with protein synthesis inhibitor, model not specified
  α-SMA protein outcome in naïve fibroblasts re-plated in D-ECM, in words: did not influence outcomes

## mAb16, functional blocking anti-α5β1 integrin antibody
[2]
  α-SMA expression, PDAC, median (normalized to untreated D-ECM): 0.71 a.u.
  α-SMA expression, RCC, median (normalized to untreated D-ECM): 0.53 a.u.
  α-SMA stress fiber localization under FAK inhibitor PF573,228, PDAC: 49%
  α-SMA stress fiber localization under FAK inhibitor PF573,228, RCC: 45%
  α-SMA stress fiber localization, PDAC, median (normalized to untreated D-ECM): 0.77 a.u.
  α-SMA stress fiber localization, RCC, median (normalized to untreated D-ECM): 0.89 a.u.

## CC(C)(C)n1nc(-c2ccc(Cl)cc2)c2c(N)ncnc21 [PP2]
[1]; PDAC
  D-ECM induced myofibroblastic phenotype (α-SMA expression / stress fiber localization), in words: D-ECM-induced phenotype was lost
[3]; RCC
  D-ECM induced myofibroblastic phenotype (α-SMA expression / stress fiber localization), in words: D-ECM-induced phenotype was lost

## NC(=O)c1ccc(-c2nc(-c3ccc4c(c3)OCO4)c(-c3ccccn3)[nH]2)cc1 [SB-431542]
[4]; [10]
  fiber alignment (fibers distributed at 15° from the mode angle): 36%
[4]; TGFβ blockage during D-ECM production, n=21, P<0.0001
  ECM fiber alignments reduced to: 47%
[5]; [10]
  fiber alignment (fibers distributed at 15° from the mode angle): 47%
[5]; TGFβ blockage during D-ECM production, n=26, P=0.0028
  ECM fiber alignments reduced to: 51%
[6]
  reduction of TGFβ levels stored within ECMs: 60%
[7]
  de novo N-ECM assembly: prevented de novo N-ECM assembly
[1]; PDAC, D-ECM produced under TGFβ blockage, re-seeded with naïve fibroblasts
  stress fiber localization of α-SMA relative to the untreated D-ECM: 55%
[1]; [11]
  α-SMA expression, Median: 0.62 a.u.
  α-SMA stress fiber localization, Median: 0.96 a.u.
[1]; PDAC
  D-ECM induced myofibroblastic phenotype (α-SMA expression / stress fiber localization), in words: comparable
[1]; [12]
  α-SMA expression, Median: 0.73 a.u.
  α-SMA stress fiber localization, Median: 0.55 a.u.
[1]; PDAC, naïve fibroblasts plated in D-ECM in presence of the agent
  α-SMA expression levels relative to untreated conditions: 62%
[1]; naïve pancreatic fibroblasts re-seeded in D-ECM produced in presence of SB-431542
  myofibroblastic phenotype induced de novo by the extracted ECM, in words: comparable phenotypes
[3]; RCC, D-ECM produced under TGFβ blockage, re-seeded with naïve fibroblasts
  stress fiber localization of α-SMA relative to the untreated D-ECM: 72%
[3]; [13]
  α-SMA expression, Median: 1.00 a.u.
  α-SMA stress fiber localization, Median: 1.03 a.u.
[3]; RCC
  D-ECM induced myofibroblastic phenotype (α-SMA expression / stress fiber localization), in words: comparable
[3]; [14]
  α-SMA expression, Median: 0.41 a.u.
  α-SMA stress fiber localization, Median: 0.72 a.u.
[3]; RCC, naïve fibroblasts plated in D-ECM in presence of the agent
  α-SMA expression levels relative to untreated conditions: 100%
[3]; naïve renal fibroblasts re-seeded in D-ECM produced in presence of SB-431542
  myofibroblastic phenotype induced de novo by the extracted ECM, in words: comparable phenotypes

## SNAKA51, conformation-dependent anti-active α5 integrin functional antibody
[2]
  α-SMA expression, PDAC, median (normalized to untreated D-ECM): 0.32 a.u.
  α-SMA expression, RCC, median (normalized to untreated D-ECM): 0.43 a.u.
  α-SMA stress fiber localization, PDAC, median (normalized to untreated D-ECM): 0.56 a.u.
  α-SMA stress fiber localization, RCC, median (normalized to untreated D-ECM): 0.93 a.u.

## ALULA, functional-blocking anti αvβ5 integrin antibody
[8]
  intracellular levels of α5β1 integrin activity, PDAC: 0%
  intracellular levels of α5β1 integrin activity, RCC: 60%
  α5β1 integrin activity localized away from 3D-adhesions, PDAC (relative to D-ECM, a.u.=1): 0.32 a.u.
  α5β1 integrin activity localized away from 3D-adhesions, RCC (relative to D-ECM, a.u.=1): 0.82 a.u.
  α-SMA expression, PDAC, median (normalized to untreated D-ECM): 0.29 a.u.
  α-SMA expression, RCC, median (normalized to untreated D-ECM): 0.58 a.u.
  α-SMA stress fiber localization, PDAC, median (normalized to untreated D-ECM): 0.54 a.u.
  α-SMA stress fiber localization, RCC, median (normalized to untreated D-ECM): 0.67 a.u.
[9]
  percentage of FAK-/- murine fibroblasts in mD-ECM undergoing myofibroblastic activation: 14%
  percentage of murine cells in mD-ECM with myofibroblast activation under FAK inhibitor PF573,228: 23%
  percentage of murine fibroblasts in mD-ECM undergoing myofibroblastic activation: 55%
